# Assay results taken from ChEMBL document CHEMBL5154884, “Discovery of a Novel Src Homology-2 Domain Containing Protein Tyrosine Phosphatase-2 (SHP2) and Cyclin-Dependent Kinase 4 (CDK4) Dual Inhibitor for the Treatment of Triple-Negative Breast Cancer” (J Med Chem, 2022).
# Activity calls are given as the source filed them. No cut-off for these calls is given here.
# Assays:
# [1] = target: Cyclin-dependent kinase 4 (Homo sapiens) (UniProt P11802); assay: Inhibition of CDK4 downstream signalling in human MDA-MB-231 cells assessed as decrease in p-retinoblastoma protein level measured after 72 hrs by Western blot analysis; type: cell-based; details: dose 1.25-20 µM, DDE = dose-dependent effect
# EMT6 [2] = assay: Antitumor activity against mouse EMT6 cells implanted in BALB/c mouse syngenic model assessed as increase in infiltration of CD8 positive T cells into tumors at 20 mg/kg, po bid measured after 18 days by immunohistochemical analysis; type: functional, organism-based; details: time 18.0 day
# MDA-MB-231 [3] = assay: Induction of apoptosis in human MDA-MB-231 cells assessed as late apoptotic cells at 3 uM measured after 48 hrs by Annexin V-FITC/PI staining based flow cytometric analysis (reference value: 1.06%); type: functional
# [4] = Clearance in ICR mouse at 1 mg/kg, iv measured upto 24 hrs by LC-MS/MS analysis; type: ADME, organism-based; details: in vivo
# MDA-MB-231 [5] = assay: Induction of apoptosis in human MDA-MB-231 cells assessed as early apoptotic cells at 1 uM measured after 48 hrs by Annexin V-FITC/PI staining based flow cytometric analysis (reference value: 0.32%); type: functional
# [6] = target: Cyclin-dependent kinase 7/ cyclin H (Homo sapiens, UniProt P50613); assay: Inhibition of CDK7/Cyclin H (unknown origin) incubated for 20 mins followed by [33P]gamma-ATP addition and measured after 2 hrs by radiometric HotSpot Kinase assay; type: protein-complex assay
# MDA-MB-231 [7] = assay: Induction of apoptosis in human MDA-MB-231 cells assessed as early apoptotic cells at 3 uM measured after 48 hrs by Annexin V-FITC/PI staining based flow cytometric analysis (reference value: 0.32%); type: functional
# [8] = target: T1, Tyrosine-protein phosphatase non-receptor type 11 (Homo sapiens) (UniProt Q06124); assay: Inhibition of SHP2 downstream signalling in human MDA-MB-231 cells assessed as decrease in pERK1/2 protein level measured after 72 hrs by Western blot analysis; type: cell-based; details: dose 1.25-20 µM, DDE = dose-dependent effect
# T1 sequence (whole entry): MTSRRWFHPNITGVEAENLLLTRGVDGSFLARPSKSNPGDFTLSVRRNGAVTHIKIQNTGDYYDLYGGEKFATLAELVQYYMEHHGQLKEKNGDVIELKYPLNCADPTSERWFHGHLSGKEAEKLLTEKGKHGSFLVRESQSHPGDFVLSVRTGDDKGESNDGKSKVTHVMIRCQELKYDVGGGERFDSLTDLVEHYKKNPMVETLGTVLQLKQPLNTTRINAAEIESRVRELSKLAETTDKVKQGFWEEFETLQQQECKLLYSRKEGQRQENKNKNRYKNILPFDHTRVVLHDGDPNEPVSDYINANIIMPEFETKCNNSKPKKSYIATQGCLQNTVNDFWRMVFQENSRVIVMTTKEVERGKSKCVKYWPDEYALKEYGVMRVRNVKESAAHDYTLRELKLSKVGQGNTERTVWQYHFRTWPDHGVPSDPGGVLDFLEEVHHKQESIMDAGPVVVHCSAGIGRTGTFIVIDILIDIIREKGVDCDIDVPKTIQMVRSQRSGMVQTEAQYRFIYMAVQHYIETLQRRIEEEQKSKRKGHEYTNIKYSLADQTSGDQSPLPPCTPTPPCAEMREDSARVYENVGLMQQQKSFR
# EMT6 [9] = assay: Antitumor activity against mouse EMT6 cells implanted in BALB/c mouse syngenic model assessed as downregulation of pERK level in tumor at 20 mg/kg, po bid measured after 18 days by immunohistochemical analysis; type: functional, organism-based; details: time 18.0 day
# [10] = Toxicity in BALB/c nude mouse implanted with mouse EMT6 cells assessed as mortality at 40 mg/kg, po qd and measured every 2 days for 18 days; type: organism-based; details: in vivo, 432 h, time 18 day
# MDA-MB-231 [11] = assay: Induction of cell cycle arrest in human MDA-MB-231 cells assessed as accumulation of cells in S phase at 3 uM incubated for 48 hrs by RNase/propidium iodide staining based flow cytometry analysis (reference value: […]); type: functional
# CDK12/Cyclin K = CDK12/Cyclin K (Homo sapiens, UniProt Q9NYV4); assay: Inhibition of recombinant N-terminal GST/His6-fusion tagged human CDK12/Cyclin K expressed in Sf9 insect cells incubated for 20 mins followed by [33P]gamma-ATP addition and measured after 2 hrs by radiometric HotSpot Kinase assay
# MDA-MB-231 [12] = assay: Induction of cell cycle arrest in human MDA-MB-231 cells assessed as accumulation of cells in G2/M phase at 3 uM incubated for 48 hrs by RNase/propidium iodide staining based flow cytometry analysis (reference value: 2.7%); type: functional
# [13] = Toxicity in BALB/c nude mouse implanted with mouse EMT6 cells assessed as body weight loss at 40 mg/kg, po qd and measured every 2 days for 18 days; type: organism-based; details: in vivo, 432 h, time 18 day
# MDA-MB-231 [14] = assay: Induction of apoptosis in human MDA-MB-231 cells assessed as necrotic cells at 3 uM measured after 48 hrs by Annexin V-FITC/PI staining based flow cytometric analysis (reference value: 0.58%); type: functional
# CDK4/Cyclin D3 = CDK4/Cyclin D3 (Homo sapiens, UniProt P11802); assay: Inhibition of recombinant N-terminal GST/His6-fusion tagged human CDK4/Cyclin D3 expressed in Sf9 insect cells incubated for 20 mins followed by [33P]gamma-ATP addition and measured after 2 hrs by radiometric HotSpot Kinase assay
# EMT6 [15] = assay: Antitumor activity against mouse EMT6 cells implanted in BALB/c mouse syngenic model assessed as tumor growth inhibition at 20 mg/kg, po bid and measured after 18 days relative to control; type: functional; details: EMT6, 432 h, time 18 day, read-out: TGI
# [16] = Oral bioavailability in ICR mouse at 10 mg/kg measured upto 24 hrs by LC-MS/MS analysis; type: ADME, organism-based; details: in vivo
# EMT6 [17] = assay: Antitumor activity against mouse EMT6 cells implanted in BALB/c mouse syngenic model assessed as downregulation of Ki67 level in tumor at 20 mg/kg, po bid measured after 18 days by immunohistochemical analysis; type: functional, organism-based; details: time 18.0 day
# [18] = target: Cyclin-dependent kinase 13/Cyclin-K (Homo sapiens, UniProt Q14004); assay: Inhibition of recombinant N-terminal GST/His6-fusion tagged human CDK13/Cyclin K expressed in Sf9 insect cells incubated for 20 mins followed by [33P]gamma-ATP addition and measured after 2 hrs by radiometric HotSpot Kinase assay
# MDA-MB-231 [19] = assay: Induction of apoptosis in human MDA-MB-231 cells assessed as viable cells at 1 uM measured after 48 hrs by Annexin V-FITC/PI staining based flow cytometric analysis (reference value: 98.04%); type: functional; details: read-out: Activity
# MDA-MB-231 [20] = assay: Induction of apoptosis in human MDA-MB-231 cells assessed as late apoptotic cells at 1 uM measured after 48 hrs by Annexin V-FITC/PI staining based flow cytometric analysis (reference value: 1.06%); type: functional
# [21] = Cmax in ICR mouse at 10 mg/kg, po measured upto 24 hrs by LC-MS/MS analysis; type: ADME, organism-based; set-up: time < 24 hrs, dose 10 mg/kg, route po; details: in vivo
# MDA-MB-231 [22] = assay: Upregulation of p-STAT3 protein expression in human MDA-MB-231 cells at 0.25 to 20 uM measured after 72 hrs by Western blot analysis; type: functional, cell-based; details: dose 0.25-20 µM
# MDA-MB-468 = assay: Antiproliferative activity against human MDA-MB-468 cells assessed as inhibition of cell growth incubated for 48 hrs by MTT assay; type: functional, cell-based; details: Homo sapiens, MDA-MB-468, 48 h
# CDK12/Cyclin K, sequence (O75909 whole entry, the tested form may be a part): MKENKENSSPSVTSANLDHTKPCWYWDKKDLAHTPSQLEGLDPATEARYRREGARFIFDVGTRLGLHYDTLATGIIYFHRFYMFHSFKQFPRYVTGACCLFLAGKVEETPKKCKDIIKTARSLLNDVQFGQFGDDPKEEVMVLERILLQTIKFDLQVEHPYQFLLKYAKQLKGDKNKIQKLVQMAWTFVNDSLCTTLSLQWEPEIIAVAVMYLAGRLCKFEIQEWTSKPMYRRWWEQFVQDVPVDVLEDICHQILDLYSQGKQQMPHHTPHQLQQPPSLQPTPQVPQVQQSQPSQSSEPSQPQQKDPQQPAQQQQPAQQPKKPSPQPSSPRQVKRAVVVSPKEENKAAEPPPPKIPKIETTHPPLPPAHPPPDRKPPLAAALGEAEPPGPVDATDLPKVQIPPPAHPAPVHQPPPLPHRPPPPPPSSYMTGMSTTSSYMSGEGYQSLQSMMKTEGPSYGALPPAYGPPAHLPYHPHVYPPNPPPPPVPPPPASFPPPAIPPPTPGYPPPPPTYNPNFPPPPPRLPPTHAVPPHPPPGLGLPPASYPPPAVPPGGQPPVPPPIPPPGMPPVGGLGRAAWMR
# CDK12/Cyclin K, sequence (Q9NYV4 whole entry, the tested form may be a part): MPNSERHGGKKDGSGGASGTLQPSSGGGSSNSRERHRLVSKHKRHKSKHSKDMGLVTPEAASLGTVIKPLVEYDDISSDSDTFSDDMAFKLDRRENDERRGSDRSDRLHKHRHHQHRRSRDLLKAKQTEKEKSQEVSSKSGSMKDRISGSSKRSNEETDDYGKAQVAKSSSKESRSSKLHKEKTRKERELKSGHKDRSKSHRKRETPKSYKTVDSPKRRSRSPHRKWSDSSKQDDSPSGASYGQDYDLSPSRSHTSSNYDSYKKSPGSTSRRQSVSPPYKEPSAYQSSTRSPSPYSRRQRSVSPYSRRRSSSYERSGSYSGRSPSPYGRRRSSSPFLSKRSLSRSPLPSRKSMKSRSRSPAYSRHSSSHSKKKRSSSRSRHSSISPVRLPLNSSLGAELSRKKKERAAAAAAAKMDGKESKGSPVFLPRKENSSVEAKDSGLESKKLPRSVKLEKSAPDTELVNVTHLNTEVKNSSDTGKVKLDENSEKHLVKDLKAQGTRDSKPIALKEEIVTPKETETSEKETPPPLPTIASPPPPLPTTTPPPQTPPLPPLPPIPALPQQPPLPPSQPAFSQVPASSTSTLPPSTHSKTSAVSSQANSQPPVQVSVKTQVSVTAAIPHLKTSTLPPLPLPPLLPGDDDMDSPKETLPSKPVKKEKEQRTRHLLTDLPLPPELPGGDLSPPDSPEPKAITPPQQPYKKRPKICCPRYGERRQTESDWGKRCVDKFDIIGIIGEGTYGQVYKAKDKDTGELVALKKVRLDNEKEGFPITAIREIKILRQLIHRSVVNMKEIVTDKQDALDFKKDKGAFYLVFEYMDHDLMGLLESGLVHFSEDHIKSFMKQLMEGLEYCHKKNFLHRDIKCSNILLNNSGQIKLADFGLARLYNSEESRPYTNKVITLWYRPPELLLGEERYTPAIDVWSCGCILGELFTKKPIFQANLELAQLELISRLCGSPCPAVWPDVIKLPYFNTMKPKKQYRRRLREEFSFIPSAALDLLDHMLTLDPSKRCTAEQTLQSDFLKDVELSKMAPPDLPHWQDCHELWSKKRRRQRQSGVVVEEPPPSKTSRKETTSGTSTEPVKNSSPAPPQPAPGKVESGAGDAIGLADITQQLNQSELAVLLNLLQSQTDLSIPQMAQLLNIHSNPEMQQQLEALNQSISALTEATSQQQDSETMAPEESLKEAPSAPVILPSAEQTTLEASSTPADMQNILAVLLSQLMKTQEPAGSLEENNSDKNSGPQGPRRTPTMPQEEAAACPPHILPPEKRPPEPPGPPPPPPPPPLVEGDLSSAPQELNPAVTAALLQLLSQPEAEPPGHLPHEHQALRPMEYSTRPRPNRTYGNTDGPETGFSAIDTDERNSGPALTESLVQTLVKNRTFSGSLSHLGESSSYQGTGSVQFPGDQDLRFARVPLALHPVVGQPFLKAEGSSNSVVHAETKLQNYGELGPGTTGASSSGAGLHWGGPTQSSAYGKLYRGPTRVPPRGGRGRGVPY
# Cyclin-dependent kinase 4 (Homo sapiens), sequence (P11802 whole entry): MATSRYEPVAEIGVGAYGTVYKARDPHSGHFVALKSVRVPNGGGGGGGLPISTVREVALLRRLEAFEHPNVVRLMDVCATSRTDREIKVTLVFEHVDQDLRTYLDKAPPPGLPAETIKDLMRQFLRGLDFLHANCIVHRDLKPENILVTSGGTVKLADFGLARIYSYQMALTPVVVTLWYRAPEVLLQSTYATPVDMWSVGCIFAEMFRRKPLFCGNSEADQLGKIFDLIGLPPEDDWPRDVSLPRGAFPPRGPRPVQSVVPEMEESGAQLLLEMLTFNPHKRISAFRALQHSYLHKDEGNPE
# CDK4/Cyclin D3, sequence (P11802 whole entry, the tested form may be a part): as the sequence (P11802 whole entry) above
# CDK4/Cyclin D3, sequence (P30281 whole entry, further chain, the tested form may be a part): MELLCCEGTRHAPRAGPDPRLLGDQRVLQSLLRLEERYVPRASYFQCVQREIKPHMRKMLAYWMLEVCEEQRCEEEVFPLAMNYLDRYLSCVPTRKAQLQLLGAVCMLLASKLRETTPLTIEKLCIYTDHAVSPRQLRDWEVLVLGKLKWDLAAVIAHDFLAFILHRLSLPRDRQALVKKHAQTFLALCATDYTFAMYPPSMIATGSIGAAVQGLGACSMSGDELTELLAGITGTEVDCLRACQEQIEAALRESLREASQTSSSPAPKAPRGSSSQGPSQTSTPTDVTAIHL
# Cyclin-dependent kinase 13/Cyclin-K, sequence (Q14004 whole entry, the tested form may be a part): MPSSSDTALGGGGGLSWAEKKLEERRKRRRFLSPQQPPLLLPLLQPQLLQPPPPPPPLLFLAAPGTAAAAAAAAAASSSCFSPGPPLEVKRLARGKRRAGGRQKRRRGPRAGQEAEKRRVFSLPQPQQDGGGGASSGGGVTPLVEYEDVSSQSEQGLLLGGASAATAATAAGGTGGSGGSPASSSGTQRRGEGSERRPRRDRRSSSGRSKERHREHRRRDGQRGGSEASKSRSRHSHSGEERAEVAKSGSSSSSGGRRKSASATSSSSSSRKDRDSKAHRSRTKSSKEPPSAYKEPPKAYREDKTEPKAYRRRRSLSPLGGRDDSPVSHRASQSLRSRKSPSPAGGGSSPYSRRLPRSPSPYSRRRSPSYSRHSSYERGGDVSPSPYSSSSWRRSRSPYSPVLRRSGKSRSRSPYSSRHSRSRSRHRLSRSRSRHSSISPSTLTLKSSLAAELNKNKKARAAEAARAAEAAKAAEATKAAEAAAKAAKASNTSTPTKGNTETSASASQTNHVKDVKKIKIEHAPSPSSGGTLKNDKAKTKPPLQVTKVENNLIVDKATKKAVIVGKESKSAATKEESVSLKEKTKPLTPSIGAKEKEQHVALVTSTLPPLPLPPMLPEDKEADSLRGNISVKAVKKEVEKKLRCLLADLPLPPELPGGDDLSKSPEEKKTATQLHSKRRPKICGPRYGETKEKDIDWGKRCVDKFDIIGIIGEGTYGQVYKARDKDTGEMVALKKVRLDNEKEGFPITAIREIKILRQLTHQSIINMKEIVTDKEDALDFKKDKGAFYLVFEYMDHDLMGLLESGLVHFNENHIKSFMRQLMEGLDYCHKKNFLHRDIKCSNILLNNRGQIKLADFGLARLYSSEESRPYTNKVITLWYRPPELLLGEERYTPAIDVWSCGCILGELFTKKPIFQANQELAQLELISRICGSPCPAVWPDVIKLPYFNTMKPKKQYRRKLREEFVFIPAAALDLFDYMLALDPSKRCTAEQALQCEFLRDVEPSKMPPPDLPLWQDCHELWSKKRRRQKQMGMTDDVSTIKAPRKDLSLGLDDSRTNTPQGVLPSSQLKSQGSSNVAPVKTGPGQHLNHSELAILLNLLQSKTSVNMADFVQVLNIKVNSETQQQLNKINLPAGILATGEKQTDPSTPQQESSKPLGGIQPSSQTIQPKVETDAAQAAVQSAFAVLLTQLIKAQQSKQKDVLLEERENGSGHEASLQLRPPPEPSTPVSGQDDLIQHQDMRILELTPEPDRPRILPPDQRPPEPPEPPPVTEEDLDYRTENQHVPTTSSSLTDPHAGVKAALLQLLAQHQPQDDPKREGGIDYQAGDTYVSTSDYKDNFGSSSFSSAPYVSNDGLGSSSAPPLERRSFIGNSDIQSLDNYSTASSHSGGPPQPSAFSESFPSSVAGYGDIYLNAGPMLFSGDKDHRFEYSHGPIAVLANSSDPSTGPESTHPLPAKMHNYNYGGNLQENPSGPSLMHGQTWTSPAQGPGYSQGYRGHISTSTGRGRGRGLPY
# Cyclin-dependent kinase 13/Cyclin-K, sequence (O75909 whole entry, further chain, the tested form may be a part): as the sequence (O75909 whole entry, the tested form may be a part) above
# Cyclin-dependent kinase 7/ cyclin H, sequence (P51946 whole entry): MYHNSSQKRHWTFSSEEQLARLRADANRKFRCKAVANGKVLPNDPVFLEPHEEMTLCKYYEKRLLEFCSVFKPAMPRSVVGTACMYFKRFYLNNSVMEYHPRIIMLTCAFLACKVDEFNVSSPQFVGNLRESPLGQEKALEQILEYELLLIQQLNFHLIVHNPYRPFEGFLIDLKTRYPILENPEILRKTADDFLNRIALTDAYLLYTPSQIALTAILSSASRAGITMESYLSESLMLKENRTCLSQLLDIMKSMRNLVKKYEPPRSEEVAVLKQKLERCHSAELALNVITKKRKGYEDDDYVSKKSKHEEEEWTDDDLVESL
# Cyclin-dependent kinase 7/ cyclin H, sequence (P50613 whole entry): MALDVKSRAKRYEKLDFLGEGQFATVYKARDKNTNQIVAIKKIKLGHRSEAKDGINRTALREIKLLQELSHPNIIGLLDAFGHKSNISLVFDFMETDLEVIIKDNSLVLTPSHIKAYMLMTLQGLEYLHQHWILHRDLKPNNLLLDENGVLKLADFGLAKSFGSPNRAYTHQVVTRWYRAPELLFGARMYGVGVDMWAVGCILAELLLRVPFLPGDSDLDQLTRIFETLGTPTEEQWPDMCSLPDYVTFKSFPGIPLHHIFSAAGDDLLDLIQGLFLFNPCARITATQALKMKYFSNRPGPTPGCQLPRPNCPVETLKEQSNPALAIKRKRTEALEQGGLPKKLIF
compound,measurement,setting,value
Cc1nc2c(F)cc(-c3nc(Nc4nccc(Sc5cnc(N6CCC7(CC6)CO[C@@H](C)[C@H]7N)cn5)c4Cl)ncc3F)cc2n1C(C)C,inhibition,[1],Dde
same,Activity,EMT6 [2],Active
same,Activity,MDA-MB-231 [3],7.25%
same,clearance,[4],13.9 mL/min/kg
same,Activity,MDA-MB-231 [5],7.29%
same,IC50,[6],968 nM
same,Activity,MDA-MB-231 [7],9.46%
same,inhibition,[8],Dde
same,Activity,EMT6 [9],Active
same,Activity,[10],Non-Toxic
same,Activity,MDA-MB-231 [11],39.6%
same,IC50,CDK12/Cyclin K,697 nM
same,Activity,MDA-MB-231 [12],1.5%
same,Activity,[13],Non-Toxic
same,Activity,MDA-MB-231 [14],1.25%
same,IC50,CDK4/Cyclin D3,18.2 nM
same,inhibition in vivo at 20 mg/kg,EMT6 [15],89%
same,bioavailability,[16],45.8%
same,Activity,EMT6 [17],Active
same,IC50,[18],> 1000 nM
same,viability at 1 µM,MDA-MB-231 [19],86.3%
same,Activity,MDA-MB-231 [20],5.24%
same,Cmax,[21],634 ng/mL
same,Activity,MDA-MB-231 [22],Active
same,IC50,MDA-MB-468,1760 nM
